These results are taken from patent US20130316042A1, “ENHANCED RELEASE OF LIPOPHILIC INGREDIENTS FROM CHEWING GUM WITH HYDROCOLLOIDS” (CADBURY ADAMS MEXICO, S. DE R.L. DE C.V., priority 2010, published 2013).

The data set is described as follows: logP (octanol/water) at 25° C. The format is physicochemical. The method, then: In one aspect, the lipophilic ingredient is one having a partition coefficient between octanol and water (log P (octanol/water) at 25° C.) of greater than or equal to 1.5, specifically greater than or equal to 2.0, more specifically greater than or equal to 2.5, yet more specifically greater than or equal to 3.0, still yet more specifically greater than or equal to 3.5, and more specifically greater than or equal to 4.0. The partition coefficient of material can be determined experimentally or calculated using commercially available software.
By logP is commonly meant the decadic logarithm of the partition coefficient of the neutral form, usually between octanol and water. High values mean higher lipophilicity, low ones lower lipophilicity. `C/C=C/C=C\CC/C=C/C(=O)NCC(C)C` [spilanthol, N-isobutyl-2E,6Z,8E-decatrienamide] gave a logP of 3.4. Turning to `CCNC(=O)C1CC(C)CCC1C(C)C` (stereo not shown) [N-ethyl-p-menthane-3-carboxamide (WS-3), N-ethyl-p-menthane-3-carboxamide], the logP came out at 3.81. Regarding `CCNC(=O)C(CC)(C(C)C)C(C)C` [N-ethyl-2,2-diisopropylbutanamide], the lipophilicity (logP) was found to be 3.6. On to `CC(C)[C@@H]1CC[C@@H](C)C[C@H]1OC(=O)CCCC(=O)O` [monomenthyl glutarate], for which the “logP (octanol/water) at 25° C.” value was 4.12. Molecule `CNC(=O)C(C)(C(C)C)C(C)C` [N,2,3-trimethyl-2-propan-2-ylbutanamide] registered a logP of 2.48. The molecule `CC1CCC(C(C)C)C(O)C1` (stereo not shown) [menthol, reference compound] gave a logP of 3.4. `CCOC(=O)CNC(=O)C1CC(C)CCC1C(C)C` (stereo not shown) [ethyl 2-[(5-methyl-2-propan-2-ylcyclohexanecarbonyl)amino]acetate] had a logP of 3.38.
